Experimental data from patent publication US11065259B2, “Methods of treating pruritus” (Duke University, priority 2014, dated 2021).

System: pruritus (itch)
Assay: Topical administration to human subjects with psoriasis-associated pruritus
Type: in vivo
Settings: person
Protocol: The efficacy of Manganese ortho tetrakis(N-n-butoxyethylpyridinium-2-yl)porphyrin (MnTnBuOE-2-PyP^5+) in treating pruritus (itch) when topically applied was evaluated in a person with large areas of moderately severe plaque-forming psoriasis on upper and lower portions of both legs, with each involved area being approximately 10-20 cm in diameter. These lesions were markedly excoriated with intense, persistent symptoms of pruritus. MnTnBuOE-2-PyP^5+ was formulated in Lipoderm at 0.01% and 0.1% concentrations producing a light brown cream which was applied b.i.d. to lesions on one extremity. Symptoms of pruritus were relieved within 10 to 15 minutes after topical application of MnTnBuOE-2-PyP^5+ and remained under control for several hours.
A second subject with psoriatic involvement of the scalp of moderate severity and associated with marked pruritus and scratching was topically treated with MnTnBuOE-2-PyP^5+ 0.1% in Lipoderm twice daily for 3 weeks.

[1] = plaque-forming psoriasis on both legs, 0.01% and 0.1% in Lipoderm, topical b.i.d.
[2] = psoriatic involvement of the scalp, 0.1% in Lipoderm, topical twice daily for 3 weeks

Substance: Manganese ortho tetrakis(N-n-butoxyethylpyridinium-2-yl)porphyrin [MnTnBuOE-2-PyP^5+]
- time after topical application until symptoms of pruritus were relieved [1]: 10 to 15 min
- time symptoms of pruritus remained under control [1]: several hours
- comparison of efficacy of 0.01% and 0.1% concentrations (plaque-forming psoriasis on both legs, lesions treated with 0.01% vs 0.1% in Lipoderm): Equivalent efficacy
- effect of repeat application on pruritus (plaque-forming psoriasis on both legs, repeat topical application in Lipoderm): consistently reduced pruritus without tachyphylaxis
- resolution of pruritic symptoms [2]: completely effective in resolving pruritic symptoms
- time after application until symptoms of pruritus were relieved [2]: within minutes
- time symptoms of pruritus remained under control [2]: up to 12 hours
